Tests used:
in vivo = conditions: primates
Experimental: To allow for continuous exposure, NS2 0.5% will be administered at a dose of 4 times per day in Group 1 and Group 2. Aldehydes at concentrations of 10 μM are cytotoxic in cell culture (Maeda et al., 2012, Nat Chem Biol. 8(2):170-8). […] In primates, a single dose of 0.5% NS2 results in anterior eye tissue concentrations that range from 17.6 μM just after dosing to 1.2 μM three hours post dosing.

[1] = Phase 1 clinical study, 7 day QID topical dosing; assay type: in vivo, human
Experimental: (§1) The proposed proof of concept study will use the 0.5% dose level of NS2. This dose was selected based on the Phase 1 clinical study results under IND 104,497 and a 9-month dog study with QID (OU) dosing at 0.5%, 0.25%, and 0.1% (w/v). […] Based on the safety profile of the 9-month dog study where 0.5% NS2 was administered QID topically and the 7 day Phase 1 clinical study, a maximum treatment duration of 6-weeks was proposed.

[2] = 9-month dog study with QID (OU) topical dosing; assay type: in vivo
Experimental: as §1

[3] = tested on: TH1 and TH2 inflammatory cytokines, IL-10; conditions: systemically administered; cited from earlier work
ocular inflammation = conditions: cited from earlier work
[4] = tested on: patients with allergic conjunctivitis; assay: Phase II clinical trial of topical ocular NS2 in allergic conjunctivitis; assay type: in vivo, human; conditions: after a single eye drop
Source text: Based on the proposed role of aldehydes in mediating inflammation, in addition to the pre-clinical activity of NS2 in reducing IL-5 and other TH2 cytokines, a Phase II clinical trial of a single dose of topical ocular NS2 was initiated in patients with allergic conjunctivitis, and positive results were obtained from that trial in February 2016. The trial design and data from that trial have been reported previously. […] The positive clinical effects of NS2 continued […].

[5] = tested on: patients with active noninfectious anterior uveitis; assay: Phase II randomized, investigator-masked, comparator-controlled trial of NS2 eye drops in anterior uveitis; assay type: in vivo, human
Source text: Group 2 patients will alternate doses of NS2 and Pred Forte®. All patients will be instructed to maintain at least one hour between any two doses. Patients will be followed for up to 8 weeks and monitored for safety and efficacy at six scheduled visits. Efficacy will be assessed by standard ophthalmic examination procedures and response to treatment will be graded according to established uveitis scales. […] Rescue therapy will consist of therapy dosed at the clinical discretion of the treating physician. Rescued patients will receive a follow-up assessment one week after rescue, and then they will be discontinued from the study. Study drug will be self-administered by the patient (or caregiver). Subjects will be instructed to administer study drug per the treatment arm they are assigned to. Subjects randomized to NS2 or Pred Forte® will begin with one drop in the study eye four (4) times per day. Subjects randomized to the NS2 and Pred Forte® group will be instructed to administer one drop of NS2 four (4) times per day alternating with Pred Forte® two (2) times per day. Pred Forte® will be tapered weekly and continued for up to five (5) weeks as described in Table 1. Based the pre-clinical activity of NS2 in diminishing TH1 cytokines as well as ocular inflammation in a pre-clinical model of uveitis, a Phase II trial of topical ocular NS2 was initiated in patients with active noninfectious anterior uveitis, a rare but serious autoimmune-like ocular disease that can lead to blindness. The design of the anterior uveitis Phase II trial was a randomized, parallel group, investigator-masked, comparator-controlled trial to evaluate the safety and efficacy of NS2 ophthalmic solution in patients with anterior uveitis. The trial assessed signs and symptoms of anterior uveitis including anterior chamber cell counts, which are utilized as the primary endpoints in registration studies of anterior uveitis. The study was conducted at 15 clinical sites in the US. […] Pred Forte® was dosed two (2) times daily and then tapered over a 4 week period. […] Prior to un-masking, one subject in the Pred Forte® group was removed from the ITT population for a history of ovarian cancer within the past 5 years, which met exclusion criteria. […] Patients were followed for 8 weeks and monitored for safety and efficacy at six scheduled visits. Efficacy was assessed by standard ophthalmic examination procedures including slit lamp examination and response to treatment was graded according to established uveitis scales. The visit schedule included a screening randomization visit, a day 4 telephone follow-up visit, and clinic visits at week 1, 2, 4, and 8. […] Rescued patients were followed through the week 8 end of study visit.

## CC(C)(O)c1nc2ccc(Cl)cc2cc1N [NS2]
In vivo
  anterior eye tissue concentration: 17.6 µM
  concentration at 3 h: 1200 nM
[1]; 0.5% NS2 group, 7 day QID dosing
  tolerability: well tolerated
[1]; human, plasma, topical, 0.5% NS2, 7 day QID dosing, detection limit, each subject, read-out: plasma levels of NS2
  concentration at 7 day: < 5 ng/mL
[2]; 9-month, QID (OU) at 0.5%, 0.25%, 0.1% (w/v)
  macroscopic or microscopic evaluations: no abnormal findings
[2]; dog, in vivo
  tolerability: well tolerated
[3]
  IL-10 (anti-inflammatory cytokine): up-regulating
  levels of TH1 and TH2 inflammatory cytokines: significantly lowered
Ocular inflammation
  activity versus topical ocular corticosteroid administration: compared favorably
[4]
  ocular itching and tearing: significantly reduced
[5]; NS2 treated groups
  frequency of ocular stinging and burning: increased frequency
[5]; anterior uveitis population
  effects on anterior chamber cell counts: clinically meaningful effects
[5]; anterior uveitis population, 0.5% drops 4 times daily, 6 weeks
  tolerability: generally well tolerated
[5]; during the study
  rescue medication required, proportion of patients: 20%
  safety concerns (ocular exam scores, intra-ocular pressure, corneal thickness, visual acuity): no safety concerns
[5]; in vivo
  subjects withdrawn for an adverse event of stinging: One
[5]; time point not given
  ACC improvement of at least 1 grade, proportion of patients with successful response: 53%
[5]; topical ocular
  reducing inflammatory cell count in the anterior chamber of the eye versus standard of care corticosteroid: statistically indistinguishable from standard of care corticosteroid administration
[5]; week 2 study visit, mITT population
  grade 0 ACC (anterior chamber cell count) treatment response, proportion of patients: 33%
[5]; week 8 study visit, mITT population
  sustained grade 0 ACC treatment response, proportion of patients: 40%

Reference: patent US11129823B2 (Aldeyra Therapeutics, Inc., priority 2016, dated 2021)
